Test results published in US8980848B2, “Flavonoid dimers and their use” (The Hong Kong Polytechnic University, priority 2010, dated 2015).

How the values were obtained:
[1] = Tumor cell line cytotoxicity of flavonoid dimers, LCC6MDR; assay type: cell-based, human; conditions: human, LCC6MDR cells, IC50 of compound alone
Protocol: (§1) (b) Tumor Cell Line Cytotoxicity. The tumor cytotoxicity assays of flavonoid dimers were performed against LCC6, LCC6MDR and L929 cell lines. […] In brief, LCC6, LCC6MDR and L929 cells were seeded into 96-well flat bottom microtiter plate at 1×10^4 cells per well in a final volume of 100 μL media, respectively. A graded dose of flavonoid dimers was added into wells. The plate was incubated at 37° C. for 72 hrs at the atmosphere 5% CO2 in the air. The % of survivors was determined.

[2] = Tumor cell line cytotoxicity of flavonoid dimers, LCC6; assay type: cell-based, human; conditions: human, LCC6 cells, IC50 of compound alone
Protocol: as §1

[3] = Cytotoxicity of flavonoid dimers, L929 mouse fibroblast; assay type: cell-based; conditions: mouse, L929 fibroblast cells, IC50 of compound alone, 72 hrs, mouse fibroblast
Protocol: as §1

Pgp (LCC6MDR cells) = Pgp (LCC6MDR cells) (Homo sapiens, UniProt P08183); experiment: Cell proliferation assay: Pgp-modulating activity, reversal of anticancer drug resistance in LCC6MDR cells; conditions: for RF (Relative Fold), cpd at 0.5 μM: RF = (IC50 without modulator)/(IC50 with 0.5 μM modulator); for RF (Relative Fold), cpd at 0.5 μM / RF (Relative Fold), cpd at 1 μM: paclitaxel; for RF (Relative Fold), cpd at 0.5 μM / RF (Relative Fold), cpd at 1 μM / EC50: LCC6MDR; for RF (Relative Fold), cpd at 1 μM: RF = (IC50 without modulator)/(IC50 with 1.0 μM modulator); for EC50: EC50 of compounds for reversing anticancer drug resistance (nM), Paclitaxel; for Therapeutic index: IC50 of compounds for L929/EC50 of compounds for lowering paclitaxel drug resistance
Pgp (LCC6MDR cells), sequence (P08183 whole entry): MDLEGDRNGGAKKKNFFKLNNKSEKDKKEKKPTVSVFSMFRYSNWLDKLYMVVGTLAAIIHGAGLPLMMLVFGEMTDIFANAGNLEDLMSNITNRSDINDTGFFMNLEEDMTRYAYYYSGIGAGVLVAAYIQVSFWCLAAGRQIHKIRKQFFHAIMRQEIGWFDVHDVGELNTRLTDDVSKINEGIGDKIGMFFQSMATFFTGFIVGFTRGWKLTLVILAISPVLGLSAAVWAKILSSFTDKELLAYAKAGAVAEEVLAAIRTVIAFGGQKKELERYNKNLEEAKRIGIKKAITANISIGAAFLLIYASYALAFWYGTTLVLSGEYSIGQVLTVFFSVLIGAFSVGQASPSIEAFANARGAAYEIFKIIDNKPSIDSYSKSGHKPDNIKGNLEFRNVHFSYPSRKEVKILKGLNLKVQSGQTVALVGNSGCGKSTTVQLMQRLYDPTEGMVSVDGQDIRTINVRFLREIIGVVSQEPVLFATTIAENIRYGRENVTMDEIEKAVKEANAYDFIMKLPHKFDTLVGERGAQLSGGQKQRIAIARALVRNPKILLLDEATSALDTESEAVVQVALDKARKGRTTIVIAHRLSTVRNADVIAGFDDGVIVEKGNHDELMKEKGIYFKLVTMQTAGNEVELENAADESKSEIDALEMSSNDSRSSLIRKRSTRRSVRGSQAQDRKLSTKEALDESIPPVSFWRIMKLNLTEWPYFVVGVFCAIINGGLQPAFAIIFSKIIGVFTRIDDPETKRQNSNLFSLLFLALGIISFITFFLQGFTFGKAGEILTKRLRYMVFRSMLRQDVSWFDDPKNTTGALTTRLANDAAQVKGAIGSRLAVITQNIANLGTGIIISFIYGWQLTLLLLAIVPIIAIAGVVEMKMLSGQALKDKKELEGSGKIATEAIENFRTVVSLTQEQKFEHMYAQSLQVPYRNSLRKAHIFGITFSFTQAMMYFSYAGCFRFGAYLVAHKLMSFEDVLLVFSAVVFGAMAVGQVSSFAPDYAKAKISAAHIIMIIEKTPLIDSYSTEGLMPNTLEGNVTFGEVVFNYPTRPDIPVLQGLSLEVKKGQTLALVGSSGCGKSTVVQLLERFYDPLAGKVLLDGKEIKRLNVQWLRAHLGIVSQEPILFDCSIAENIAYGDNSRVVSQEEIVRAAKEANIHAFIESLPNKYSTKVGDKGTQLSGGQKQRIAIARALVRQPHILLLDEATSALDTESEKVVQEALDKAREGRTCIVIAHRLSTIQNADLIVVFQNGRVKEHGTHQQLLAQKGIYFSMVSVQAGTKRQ
Protocol: Cell Proliferation Assay. 6,000 cells of LCC6 or LCC6MDR and anticancer drugs (paclitaxel, vinblastine, vincristine, doxorubicin and mitoxantrone) were mixed with or without modulators to a final volume of 200 μL in each well of 96-well plates. […] The plates were then incubated for 5 days at 37° C. […] IC50 values were calculated from the dose-response curves of MTS assays (Prism 4.0).

Row | EC50 (Pgp (LCC6MDR cells)) | Compound | IC50 at 72 h [1] | IC50 at 72 h [2] | IC50 at 72 h [3] | RF (Relative Fold), cpd at 0.5 μM (Pgp (LCC6MDR cells)) | RF (Relative Fold), cpd at 1 μM (Pgp (LCC6MDR cells)) | Therapeutic index (Pgp (LCC6MDR cells))
1 | – | COc1cc(CN(CCOCCOc2ccc(-c3cc(=O)c4ccccc4o3)cc2)CCOCCOc2ccc(-c3cc(=O)c4ccccc4o3)cc2)cc(OC)c1 [Compound 44, 1,13-Bis[4′-(4H-chromen-4-on-2-yl)phenyl]-7-(3,5-dimethoxybenzyl)-1,4,10,13-tetraoxa-7-azamidecane] | > 100 µM | > 100 µM | > 100 µM | (19.1) | (51.0) | –
2 | – | Cc1cccc(CN(CCOCCOc2ccc(-c3cc(=O)c4ccccc4o3)cc2)CCOCCOc2ccc(-c3cc(=O)c4ccccc4o3)cc2)c1 [Compound 45, 1,13-Bis[4′-(4H-chromen-4-on-2-yl)phenyl]-7-(3-methylbenzyl)-1,4,10,13-tetraoxa-7-azamidecane] | > 66 µM | 57.7 ± 5.9 µM | 55 ± 4.4 µM | (32.6) | (102.1) | –
3 | – | Cc1ccccc1CN(CCOCCOc1ccc(-c2cc(=O)c3ccccc3o2)cc1)CCOCCOc1ccc(-c2cc(=O)c3ccccc3o2)cc1 [Compound 46, 1,13-Bis[4′-(4H-chromen-4-on-2-yl)phenyl]-7-(2-methylbenzyl)-1,4,10,13-tetraoxa-7-azamidecane] | > 100 µM | > 100 µM | > 100 µM | (32.6) | (117.8) | –
4 | – | Cc1ccc(CN(CCOCCOc2ccc(-c3cc(=O)c4ccccc4o3)cc2)CCOCCOc2ccc(-c3cc(=O)c4ccccc4o3)cc2)cc1 [Compound 47, 1,13-Bis[4′-(4H-chromen-4-on-2-yl)phenyl]-7-(4-methylbenzyl)-1,4,10,13-tetraoxa-7-azamidecane] | > 81 µM | > 100 µM | 66.4 ± 16.8 µM | (31.2) | (109.4) | –
5 | – | O=c1cc(-c2ccc(OCCOCCN(CCOCCOc3ccc(-c4cc(=O)c5ccccc5o4)cc3)Cc3cccc(Cl)c3)cc2)oc2ccccc12 [Compound 48, 1,13-Bis[4′-(4H-chromen-4-on-2-yl)phenyl]-7-(3-chlorobenzyl)-1,4,10,13-tetraoxa-7-azamidecane] | > 98 µM | > 100 µM | > 100 µM | (19.6) | (80.6) | –
6 | – | O=c1cc(-c2ccc(OCCOCCN(CCOCCOc3ccc(-c4cc(=O)c5ccccc5o4)cc3)Cc3ccccc3Cl)cc2)oc2ccccc12 [Compound 50, 1,13-Bis[4′-(4H-chromen-4-on-2-yl)phenyl]-7-(2-chlorobenzyl)-1,4,10,13-tetraoxa-7-azamidecane] | > 100 µM | > 100 µM | > 100 µM | (11.9) | (95.7) | –
7 | – | N#Cc1ccc(CN(CCOCCOc2ccc(-c3cc(=O)c4ccccc4o3)cc2)CCOCCOc2ccc(-c3cc(=O)c4ccccc4o3)cc2)cc1 [Compound 51, 1,13-Bis[4′-(4H-chromen-4-on-2-yl)phenyl]-7-(4-cyanobenzyl)-1,4,10,13-tetraoxa-7-azamidecane] | > 100 µM | > 100 µM | 25.2 ± 12.4 µM | (2.6) | (5.9) | –
8 | – | C=Cc1ccc(CN(CCOCCOc2ccc(-c3cc(=O)c4ccccc4o3)cc2)CCOCCOc2ccc(-c3cc(=O)c4ccccc4o3)cc2)cc1 [Compound 52, 1,13-Bis[4′-(4H-chromen-4-on-2-yl)phenyl]-7-(4-vinylbenzyl)-1,4,10,13-tetraoxa-7-azamidecane] | 28.3 ± 8.2 µM | 21 ± 4.7 µM | 7.4 ± 1 µM | (72.9) | (117.8) | –
9 | – | CCc1ccc(CN(CCOCCOc2ccc(-c3cc(=O)c4ccccc4o3)cc2)CCOCCOc2ccc(-c3cc(=O)c4ccccc4o3)cc2)cc1 [Compound 53, 1,13-Bis[4′-(4H-chromen-4-on-2-yl)phenyl]-7-(4-ethylbenzyl)-1,4,10,13-tetraoxa-7-azamidecane] | > 100 µM | > 100 µM | 25.4 ± 8.1 µM | (23.9) | (69.6) | –
10 | 188 nM | CC(C)(C)OC(=O)Nc1ccc(CN(CCOCCOc2ccc(-c3cc(=O)c4ccccc4o3)cc2)CCOCCOc2ccc(-c3cc(=O)c4ccccc4o3)cc2)cc1 [Compound 54, 1,13-Bis[4′-(4H-chromen-4-on-2-yl)phenyl]-7-(4-tert-butyloxycarbonylanimobenzyl)-1,4,10,13-tetraoxa-7-azamidecane] | > 50 µM | > 50 µM | > 50 µM | (45.0) | (95.7) | 266.0
11 | 244 nM | Nc1ccc(CN(CCOCCOc2ccc(-c3cc(=O)c4ccccc4o3)cc2)CCOCCOc2ccc(-c3cc(=O)c4ccccc4o3)cc2)cc1 [Compound 55, 1,13-Bis[4′-(4H-chromen-4-on-2-yl)phenyl]-7-(4-aminobenzyl)-1,4,10,13-tetraoxa-7-azamidecane] | > 50 µM | > 50 µM | > 50 µM | (8.8) | (72.9) | 204.9
12 | – | O=c1cc(-c2ccc(OCCOCCN(CCOCCOc3ccc(-c4cc(=O)c5ccccc5o4)cc3)Cc3cccc(-c4ccccc4)c3)cc2)oc2ccccc12 [Compound 56, 1,13-Bis[4′-(4H-chromen-4-on-2-yl)phenyl]-7-(3-phenylbenzyl)-1,4,10,13-tetraoxa-7-azamidecane] | > 100 µM | > 100 µM | > 100 µM | (2.7) | (38.5) | –
13 | 92 ± 11 nM | O=c1cc(-c2ccc(OCCOCCN(CCOCCOc3ccc(-c4cc(=O)c5ccccc5o4)cc3)Cc3ccc4ccccc4c3)cc2)oc2ccccc12 [Compound 58, 1,13-Bis[4′-(4H-chromen-4-on-2-yl)phenyl]-7-(2-naphthalenylmethyl)-1,4,10,13-tetraoxa-7-azamidecane] | 8.9 ± 3.3 µM | 4.8 ± 0.4 µM | 5.1 ± 0.3 µM | (95.7) | (117.8) | 55.4
14 | – | O=c1cc(-c2ccc(OCCOCCN(CCOCCOc3ccc(-c4cc(=O)c5ccccc5o4)cc3)Cc3nc4ccccc4[nH]3)cc2)oc2ccccc12 [Compound 60, 1,13-Bis[4′-(4H-chromen-4-on-2-yl)phenyl]-7-(2-benzimidazolylmethyl)-1,4,10,13-tetraoxa-7-azamidecane] | > 100 µM | > 100 µM | > 70 µM | (21.9) | (117.8) | –
15 | 132 ± 7 nM | O=c1cc(-c2ccc(OCCOCCN(CCOCCOc3ccc(-c4cc(=O)c5ccccc5o4)cc3)CC3CCCCC3)cc2)oc2ccccc12 [Compound 62, 1,13-Bis[4′-(4H-chromen-4-on-2-yl)phenyl]-7-(cyclohexanylmethyl)-1,4,10,13-tetraoxa-7-azamidecane] | 7.9 ± 2.7 µM | 10 ± 4.7 µM | 18.9 ± 2.3 µM | (56.7) | (117.8) | 143.2
16 | – | O=c1cc(-c2ccc(OCCOCCN(CCOCCOc3ccc(-c4cc(=O)c5ccccc5o4)cc3)Cc3cccnc3)cc2)oc2ccccc12 [Compound 64a, 1,13-Bis[4′-(4H-chromen-4-on-2-yl)phenyl]-7-(3-pyridylmethyl)-1,4,10,13-tetraoxa-7-azamidecane] | 4.7 ± 0.2 µM | 5.7 ± 1.4 µM | 2.3 ± 0.2 µM | (8.5) | (46.4) | –
17 | – | O=c1cc(-c2ccc(OCCOCCN(CCOCCOc3ccc(-c4cc(=O)c5ccccc5o4)cc3)Cc3ccnc(Br)c3)cc2)oc2ccccc12 [Compound 64b, 1,13-Bis[4′-(4H-chromen-4-on-2-yl)phenyl]-7-(4-(2-bromopyridyl)methyl)-1,4,10,13-tetraoxa-7-azamidecane] | > 100 µM | > 100 µM | > 100 µM | (8.4) | (76.6) | –
18 | – | N#Cc1cc(CN(CCOCCOc2ccc(-c3cc(=O)c4ccccc4o3)cc2)CCOCCOc2ccc(-c3cc(=O)c4ccccc4o3)cc2)ccn1 [Compound 64c, 1,13-Bis[4′-(4H-chromen-4-on-2-yl)phenyl]-7-(4-(2-cyanopyridyl)methyl)-1,4,10,13-tetraoxa-7-azamidecane] | > 100 µM | > 100 µM | > 50 µM | (19.4) | (66.6) | –
19 | – | O=c1cc(-c2ccc(OCCOCCN(CCOCCOc3ccc(-c4cc(=O)c5ccccc5o4)cc3)Cc3ccncc3Br)cc2)oc2ccccc12 [Compound 64d, 1,13-Bis[4′-(4H-chromen-4-on-2-yl)phenyl]-7-(4-(3-bromopyridyl)methyl)-1,4,10,13-tetraoxa-7-azamidecane] | > 100 µM | > 100 µM | > 50 µM | (10.6) | (61.2) | –
